The source made the active and inactive calls. The rule behind the calls is not given here.

The target of series [1] is Non-receptor tyrosine-protein kinase TYK2 (Homo sapiens, UniProt P29597). As to the kind of experiment: Inhibition of N-terminal GST-tagged human TYK2 (871to 1187 residues) expressed in Sf21 cells incubated for 30 mins in presence of ATP by LANCE Ultra assay. In general terms: TR-FRET usually uses a lanthanide donor and a delayed reading to cut background.
The target of series [2] is Transcription factor p65 (Homo sapiens) (UniProt Q04206). As to the kind of experiment: Inhibition of p65 phosphorylation in human A549 cells at 2.5 to 10 uM preincubated with compound for 1 hrs followed by IFN-gamma stimulation for 1 hrs by Western blot analysis. The class given is cell-based. The settings on record: dose 2.5-10 µM, time 2.0 hrs. (In western blotting, separated proteins are transferred to a membrane and probed.)
Chain of Transcription factor p65 (Homo sapiens) (Q04206 whole entry): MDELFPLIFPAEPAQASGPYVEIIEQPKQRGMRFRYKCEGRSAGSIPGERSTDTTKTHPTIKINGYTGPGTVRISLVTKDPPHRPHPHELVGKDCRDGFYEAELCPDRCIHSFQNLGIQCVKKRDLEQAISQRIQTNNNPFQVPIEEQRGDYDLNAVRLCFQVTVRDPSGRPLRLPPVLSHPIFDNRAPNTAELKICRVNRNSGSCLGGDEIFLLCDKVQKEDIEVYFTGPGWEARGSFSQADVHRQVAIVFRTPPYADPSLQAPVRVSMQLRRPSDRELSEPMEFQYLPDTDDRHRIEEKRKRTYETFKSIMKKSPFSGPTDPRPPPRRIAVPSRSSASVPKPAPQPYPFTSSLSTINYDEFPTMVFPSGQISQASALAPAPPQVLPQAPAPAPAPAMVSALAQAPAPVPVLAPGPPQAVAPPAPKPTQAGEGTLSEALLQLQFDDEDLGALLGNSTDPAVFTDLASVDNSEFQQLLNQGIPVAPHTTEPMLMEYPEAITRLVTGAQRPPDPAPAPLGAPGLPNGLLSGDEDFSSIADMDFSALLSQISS

Series [3] is described as follows: Inhibition of IFN-gamma induced PD-L1 protein expression in human SK-OV-3 cells incubated for 48 hrs by high-throughput flow cytometric analysis. The settings on record: SK-OV-3, 48 h.
In series [4] the target is Transcription factor p65 (Homo sapiens) (UniProt Q04206). In words: Inhibition of p65 phosphorylation in human BXPC-3 cells at 2.5 to 10 uM preincubated with compound for 1 hrs followed by IFN-gamma stimulation for 1 hrs by Western blot analysis. The class given is cell-based. The conditions noted are these: dose 2.5-10 µM, time 2.0 hrs.
The nature of series [5]: Inhibition of IFN-gamma induced PD-L1 protein expression in human A549 cells incubated for 48 hrs by high-throughput flow cytometric analysis. The conditions noted are these: A549, 48 h. A general note: Flow cytometry measures light scatter and fluorescence of single cells or particles in a stream.
The target of series [6] is T1, Tyrosine-protein kinase JAK2 (Homo sapiens, UniProt O60674). The conditions noted are these: BXPC-3, Lysate, dose 10.0 µM, time 1.0 hrs.
T1 sequence (O60674 whole entry): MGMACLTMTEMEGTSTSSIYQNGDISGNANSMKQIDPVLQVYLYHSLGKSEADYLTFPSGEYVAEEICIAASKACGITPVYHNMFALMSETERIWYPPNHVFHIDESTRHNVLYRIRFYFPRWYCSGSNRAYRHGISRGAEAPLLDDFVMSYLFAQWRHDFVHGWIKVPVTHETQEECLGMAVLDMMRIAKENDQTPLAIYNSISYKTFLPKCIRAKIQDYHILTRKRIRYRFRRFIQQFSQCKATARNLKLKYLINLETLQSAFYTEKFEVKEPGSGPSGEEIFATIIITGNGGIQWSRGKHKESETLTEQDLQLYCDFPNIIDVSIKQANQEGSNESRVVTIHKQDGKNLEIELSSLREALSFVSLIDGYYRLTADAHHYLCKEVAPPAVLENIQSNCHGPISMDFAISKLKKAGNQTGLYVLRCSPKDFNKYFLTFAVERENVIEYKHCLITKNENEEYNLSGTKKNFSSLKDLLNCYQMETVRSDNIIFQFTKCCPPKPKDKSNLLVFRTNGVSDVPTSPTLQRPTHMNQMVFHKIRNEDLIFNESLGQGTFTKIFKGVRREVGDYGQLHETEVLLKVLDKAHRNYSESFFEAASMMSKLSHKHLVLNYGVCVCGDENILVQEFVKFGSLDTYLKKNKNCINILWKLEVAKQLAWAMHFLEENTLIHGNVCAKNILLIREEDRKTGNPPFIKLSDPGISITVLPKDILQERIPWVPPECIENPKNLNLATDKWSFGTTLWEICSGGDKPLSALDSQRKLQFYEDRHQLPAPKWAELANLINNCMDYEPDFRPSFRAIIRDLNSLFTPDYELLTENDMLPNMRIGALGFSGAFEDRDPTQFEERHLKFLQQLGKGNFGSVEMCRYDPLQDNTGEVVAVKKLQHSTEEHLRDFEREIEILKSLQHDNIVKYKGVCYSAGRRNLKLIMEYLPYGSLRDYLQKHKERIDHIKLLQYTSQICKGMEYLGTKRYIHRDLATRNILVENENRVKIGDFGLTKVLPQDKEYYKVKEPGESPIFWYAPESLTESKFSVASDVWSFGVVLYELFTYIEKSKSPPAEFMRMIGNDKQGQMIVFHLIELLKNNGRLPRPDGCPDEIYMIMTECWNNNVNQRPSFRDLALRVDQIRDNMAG
Series [7] concerns BXPC-3. As to the kind of experiment: Effect on cell death in human BXPC-3 cells at 2.5 to 10 uM incubated for 48 hrs by microscopic analysis. The class given is toxicity, cell-based. The settings on record: bxpc-3, 48 h, dose 2.5-10 µM.
The target in series [8] is T1, Tyrosine-protein kinase JAK2. In words: Inhibition of N-terminal His-tagged human JAK2 (826 to 1132 residues) expressed in Sf21 cells incubated for 30 mins in presence of ATP by LANCE Ultra assay.
The target in series [9] is T2, Tyrosine-protein kinase JAK3 (Homo sapiens, UniProt P52333).
T2 sequence (P52333 whole entry): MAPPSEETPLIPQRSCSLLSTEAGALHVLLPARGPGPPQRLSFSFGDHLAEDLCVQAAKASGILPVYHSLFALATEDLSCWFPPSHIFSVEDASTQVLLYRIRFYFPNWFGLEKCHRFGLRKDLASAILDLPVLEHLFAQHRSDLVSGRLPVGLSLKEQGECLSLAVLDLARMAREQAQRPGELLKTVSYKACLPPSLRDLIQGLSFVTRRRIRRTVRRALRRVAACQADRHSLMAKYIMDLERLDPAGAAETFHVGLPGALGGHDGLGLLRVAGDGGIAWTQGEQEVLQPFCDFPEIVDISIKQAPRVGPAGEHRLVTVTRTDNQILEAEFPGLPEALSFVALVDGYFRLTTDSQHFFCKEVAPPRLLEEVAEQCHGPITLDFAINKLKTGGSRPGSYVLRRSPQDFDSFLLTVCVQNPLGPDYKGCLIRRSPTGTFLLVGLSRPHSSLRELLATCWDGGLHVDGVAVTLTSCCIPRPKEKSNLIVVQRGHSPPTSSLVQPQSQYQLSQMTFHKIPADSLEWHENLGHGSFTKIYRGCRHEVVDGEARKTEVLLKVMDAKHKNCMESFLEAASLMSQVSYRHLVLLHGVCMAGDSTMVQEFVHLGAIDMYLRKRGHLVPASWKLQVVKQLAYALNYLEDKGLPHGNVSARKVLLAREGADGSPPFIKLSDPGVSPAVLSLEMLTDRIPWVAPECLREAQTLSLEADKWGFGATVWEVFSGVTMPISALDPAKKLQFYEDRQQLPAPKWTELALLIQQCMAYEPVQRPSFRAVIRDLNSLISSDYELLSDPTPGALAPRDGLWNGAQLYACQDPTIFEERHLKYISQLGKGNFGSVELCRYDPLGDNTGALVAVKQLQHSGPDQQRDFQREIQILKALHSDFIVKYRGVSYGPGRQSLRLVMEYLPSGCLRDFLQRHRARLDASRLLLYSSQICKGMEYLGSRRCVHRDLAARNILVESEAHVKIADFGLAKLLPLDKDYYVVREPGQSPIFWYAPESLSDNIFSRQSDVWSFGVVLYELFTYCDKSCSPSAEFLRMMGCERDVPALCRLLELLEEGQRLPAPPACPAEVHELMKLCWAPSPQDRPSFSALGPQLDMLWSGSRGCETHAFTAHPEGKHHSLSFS
As to the kind of experiment: Inhibition of N-terminal His-tagged human JAK3 (795 to 1124 residues) expressed in Sf21 cells incubated for 30 mins in presence of ATP by LANCE Ultra assay.

Series [10] has as its system B16-OVA melanoma cell. As to the kind of experiment: Sensitization of mouse B16-OVA melanoma cells to OT-1 T cells assessed as increase in antigen specific T-cell killing at 2.5 to 10 uM preincubated with compound in presence of mouse IFN-gamma for 24 hrs followed by OT-1 T cell addition for 24 hrs by crystal violet staining based analysis. The class given is functional. The settings on record: dose 2.5-10 µM, time 48.0 hrs.

Series [11] concerns BXPC-3. In words: Effect on cell viability in human BXPC-3 cells at 2.5 to 10 uM incubated for 48 hrs by CellTiter-Glo assay. The class given is toxicity, cell-based. The settings on record: bxpc-3, 48 h, dose 2.5-10 µM.
Series [12] deals with B16-OVA melanoma cell. As to the kind of experiment: Sensitization of mouse B16-OVA melanoma cells to OT-1 T cells assessed as reduction in cell viability preincubated with compound in presence of mouse IFN-gamma for 24 hrs followed by OT-1 T cell addition for 24 hrs by CellTiter-Glo assay. The class given is functional, cell-based. The conditions noted are these: dose 2.5-10 µM.

Series [13] deals with Transcription factor p65 (Homo sapiens) (UniProt Q04206). As to the kind of experiment: Inhibition of p65 phosphorylation in human SK-OV-3 cells at 2.5 to 10 uM preincubated with compound for 1 hrs followed by IFN-gamma stimulation for 1 hrs by Western blot analysis. The class given is cell-based. The conditions noted are these: dose 2.5-10 µM, time 2.0 hrs.
A short description of series [14]: Inhibition of IFN-gamma induced PD-L1 protein expression in human BXPC-3 cells incubated for 48 hrs by high-throughput flow cytometric analysis. The conditions noted are these: BXPC-3, 48 h.
Series [15] has as its system BXPC-3. As to the kind of experiment: Reversal of IFN-gamma induced cell death in human BXPC-3 cells at 2.5 to 10 uM incubated for 48 hrs by microscopic analysis. The class given is functional, cell-based. The settings on record: dose 2.5-10 µM.

Chain of Non-receptor tyrosine-protein kinase TYK2 (P29597 whole entry, the tested form may be a part): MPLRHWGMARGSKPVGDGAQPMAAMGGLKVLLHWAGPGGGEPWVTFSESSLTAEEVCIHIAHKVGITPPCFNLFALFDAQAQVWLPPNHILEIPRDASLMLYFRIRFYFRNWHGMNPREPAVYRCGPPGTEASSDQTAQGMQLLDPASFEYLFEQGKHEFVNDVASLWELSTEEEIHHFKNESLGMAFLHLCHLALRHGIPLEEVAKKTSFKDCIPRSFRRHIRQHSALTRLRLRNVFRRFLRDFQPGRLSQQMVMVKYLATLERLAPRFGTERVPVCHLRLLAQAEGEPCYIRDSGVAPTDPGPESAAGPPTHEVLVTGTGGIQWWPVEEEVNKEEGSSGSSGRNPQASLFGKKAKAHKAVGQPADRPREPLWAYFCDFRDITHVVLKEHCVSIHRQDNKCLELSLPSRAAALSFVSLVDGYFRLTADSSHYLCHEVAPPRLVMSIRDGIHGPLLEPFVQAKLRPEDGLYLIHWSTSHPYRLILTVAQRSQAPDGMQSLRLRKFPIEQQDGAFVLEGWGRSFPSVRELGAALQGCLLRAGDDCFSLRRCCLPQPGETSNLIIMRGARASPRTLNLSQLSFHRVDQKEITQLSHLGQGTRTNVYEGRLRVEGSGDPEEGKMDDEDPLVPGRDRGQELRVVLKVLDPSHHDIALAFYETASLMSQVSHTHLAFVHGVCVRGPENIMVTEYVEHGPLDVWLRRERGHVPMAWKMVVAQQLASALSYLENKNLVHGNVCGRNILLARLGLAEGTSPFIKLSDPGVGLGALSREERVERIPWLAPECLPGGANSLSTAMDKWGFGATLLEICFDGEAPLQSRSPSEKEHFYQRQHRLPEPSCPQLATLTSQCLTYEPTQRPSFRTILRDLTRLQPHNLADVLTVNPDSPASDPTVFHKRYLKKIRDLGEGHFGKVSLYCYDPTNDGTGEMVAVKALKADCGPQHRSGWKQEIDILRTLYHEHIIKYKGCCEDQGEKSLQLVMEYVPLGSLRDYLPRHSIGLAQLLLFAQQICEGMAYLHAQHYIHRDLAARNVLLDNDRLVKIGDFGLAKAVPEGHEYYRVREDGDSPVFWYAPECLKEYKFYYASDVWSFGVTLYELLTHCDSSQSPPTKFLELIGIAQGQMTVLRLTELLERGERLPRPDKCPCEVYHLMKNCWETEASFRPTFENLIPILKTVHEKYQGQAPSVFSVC

The IC50 is the concentration at which inhibition is half-maximal. The ΔTm is the change in melting temperature against a reference sample. In the case of `C/C(=C\C[C@@H](C)[C@H]1CC[C@H]2[C@@H]3C[C@H](OS(=O)(=O)[O-])[C@H]4C[C@H](OS(=O)(=O)[O-])[C@@H](OS(=O)(=O)[O-])C[C@]4(C)[C@H]3CC[C@]12C)C(C)(C)C(C)C.[Na+].[Na+].[Na+]`, the half-inhibitory concentration (IC50) in series [1] is 530 nM; in [3], 6500 nM; in [5], 2800 nM; in series [8] it was 1200 nM; in series [9], 520 nM; in [14], 4100 nM. The inhibition entry in series [2], in series [4] and in series [13] was “inactive” each time. Besides, the ΔTm in [6] was 11 °C. For the same compound, the results for the Activity entry in the series on BXPC-3 [7], in the series with BXPC-3 [11] and in the series on B16-OVA melanoma cell [12] were “Non-Toxic”, “Non-Toxic” and “Dose-Dependent Effect”, respectively. The result with B16-OVA melanoma cell [10] and in the series on BXPC-3 [15] was Active.

The values are drawn from ChEMBL document CHEMBL5385928, “Sokotrasterol Sulfate Suppresses IFN-γ-Induced PD-L1 Expression by Inhibiting JAK Activity” (J Nat Prod, 2024).
